“And” between values parts separate entries of the source, which are not always exact repeats. Identical values can stand only once. Like-named read-outs stand apart in the source and are kept apart here.
Key:
[1] = tested on: chloroquine sensitive HB3 strain of P. falciparum; assay: In vitro antiplasmodial assay (Pico-Green growth inhibition); type: cell-based, Plasmodium falciparum; conditions: for P. falciparum SI, Selectivity Index (CC50/IC50): CC50 HUVEC / IC50 P. falciparum; for IC50: Plasmodium falciparum; for antiplasmodial activity against P. falciparum (in words): structure-activity discussion
Method: In vitro antiplasmodial activity was performed by culturing human erythrocytes and infecting them with P. falciparum, as reported by Trager and Jensen ([1976]). Briefly, the chloroquine sensitive HB3 strain of P. falciparum-infected O + erythrocytes was cultured in RPMI 1640 medium supplemented with 10% human serum (from O + blood) at a hematocrit of 2% erythrocytes at 37 °C with a gas mixture containing 90% N2, 5% CO2, and 5% O2. Parasites were synchronized with 5% D-sorbitol (Lambros and Vanderberg [1979]). P. falciparum growth inhibition bioassays were performed with the procedure as described by Corbett et al. ([2004]), which used Pico-Green, a double stranded-DNA fluorescent dye to test the effect of compounds.

[2] = In vitro cytotoxicity (CC50); type: cell-based; conditions: human, HUVEC cells
Text: Toxicity is a major concern of drug discovery and development, and the selectivity index (SI) is used as the evaluation parameter of drug potential of the test samples by comparing the toxicity on a human cell line (CC50) and the selective inhibitory effect on P. falciparum (IC50) calculated here as CC50/IC50. We decided to evaluate in vitro cytotoxicity of the active derivatives 38, 39, 50, 52, 65, 67, 70, and 71 by determining their 50% cytotoxic concentrations. The results are presented in Table 3, presenting only those CC50 values > 100 μmol/L, reaching selectivity indexes > 10. The cytotoxic concentration at 150 μmol/L was not be determined because of a lack of solubility of the tested molecule in the culture medium. Moreover, the toxicity of these derivatives was also evaluated against two other cell lines: hepatocellular liver carcinoma cell line (Hep G2) and cervical carcinoma (HeLa), finding CC50 values > 100 μmol/L.

[3] = tested on: N. exigua; assay: Diatom growth inhibition assay (antialgal activity); type: cell-based, Navicula exigua
Method: (§1) The antialgal activity against the microalgae P. tricornutum Bohlin, C. vulgaris, C. socialis, N. laevissima, and N. exigua was evaluated by the method of Ortlepp et al. ([2008]). Briefly, the microalgae were grown in sterilized BG11 medium under light intensity of 2500 lx and 12 h: 12 h light: dark cycle at temperature of 20 ℃. The microalgae were grown to reach the logarithmic phase (approximately 5 × 10^5 cells/ml), which were used for microalgae growth inhibition assay. The compounds 1–71 were first dissolved in a small amount of DMSO and then diluted with 0.22 μm of filtered seawater (FSW) to achieve a range of concentrations from 0.625 to 50 μg/ml. Ten microliters of the compound solution was added to multiwell Petri dishes containing a 1-mL suspension of the microalgae (approximately 12 × 10^4 cells/ml). FSW with DMSO was used as a negative control, and solutions of SeaNine 211 in seawater were used as positive controls. After the plates were incubated for 48 h (16 ± 1 ℃) under continuous light, the FSW with non-attached microalgae was removed. The amount of chlorophyll a in attached microalgae was determined with a spectrophotometer (Beckman, model DU650, USA). Then the EC50 (inhibits 50% of settlement of cyprids in comparison with the control) was calculated using the Probit software program.

[4] = tested on: N. laevissima; assay: as above; type: cell-based, Navicula laevissima; conditions: 48 h, read-out: EC50 N. laevissima
Method: as §1

[5] = tested on: P. tricornutum Bohlin, C. vulgaris, C. socialis, N. laevissima, and N. exigua; assay: Diatom growth inhibition assay, whole panel; type: cell-based; conditions: Chlorella vulgaris; selective and moderate activities; read-out: EC50 antialgal, range over compounds and algae
Method: as §1

[6] = tested on: C. socialis; assay: Diatom growth inhibition assay (antialgal activity); type: cell-based, Chaetoceros socialis; conditions: 48 h, read-out: EC50 C. socialis
Method: as §1

[7] = tested on: P. tricornutum Bohlin; assay: as above; type: cell-based, Phaeodactylum tricornutum Bohlin; conditions: 48 h, read-out: EC50 P. tricornutum
Method: as §1

[8] = tested on: C. vulgaris; assay: as above; type: cell-based, Chlorella vulgaris; conditions: 48 h, read-out: EC50 C. vulgaris
Method: as §1

[9] = tested on: zebrafish embryos; assay: Zebrafish embryo toxicity test; type: in vivo; conditions: 50 μmol/L, after 24 h
Method: Toxicity assays were carried out using the method of Wang et al. ([2011]). Briefly, the normal embryos were selected and transferred into a 24-well plate. The embryos at 1 h postfertilization (hpf) were exposed by immersion in E3 embryo medium containing the derivative in a 1% (v/v) DMSO final solvent concentration in a 24-well plate. The developmental phenotypes of the experimental status of the embryos were observed every 24 h for 72 h and were photographed with a charge-coupled device (CCD) camera.

[10] = Erythrocyte, HB3 strain in human erythrocytes, read-out: P. falciparum IC50
[11] = 48 h, chlorophyll a of attached microalgae, read-out: EC50 N. exigua
[12] = Sellaphora laevissima, chlorophyll a of attached microalgae
[13] = Chaetoceros socialis, chlorophyll a of attached microalgae
[14] = Phaeodactylum tricornutum, chlorophyll a of attached microalgae
[15] = Chlorella vulgaris, chlorophyll a of attached microalgae
[16] = 48 h, chlorophyll a of attached microalgae; read-out: EC50 N. exigua
[17] = chlorophyll a of attached microalgae

| SMILES | IC50 [1, 10] [µM] | EC50 [3, 11] [µM] | EC50 [4, 12] [µM] | EC50 [5] [µM] | EC50 [6, 13] [µM] | EC50 [7, 14] [µM] | EC50 [8, 15] [µM] | further results |
| --- | --- | --- | --- | --- | --- | --- | --- | --- |
| [2H]C([2H])([2H])C1(C([2H])([2H])[2H])OC2C=CCC(C)OC(=O)c3c(cc(OC)cc3OCc3ccc(-c4ccccc4C#N)cc3)C=CCC(O)C2O1 (stereo not shown) [Compound 65] | 7.82 | – | – | – | – | – | – | P. falciparum SI, Selectivity Index (CC50/IC50) [1]: > 12; CC50 [2]: > 100 µM |
| [2H]C([2H])([2H])C1(C([2H])([2H])[2H])OC2C=CCC(C)OC(=O)c3c(cc(OC)cc3OCc3ccccc3Br)C=CCC(O)C2O1 (stereo not shown) [Compound 58] | – | 20.1 | > 10 | 11 to 32.5 | > 10 | 28.2 | 15.9 | – |
| CCCCCCCCn1sc(Cl)c(Cl)c1=O [SeaNine 211, reference compound] | – | – | – | – | – | – | – | EC50 [3, 16]: 9.74 µM and 9.47 µM; EC50 [4, 17]: 2.9 µM; EC50 [6, 17]: 1.87 µM; EC50 [7, 17]: 0.74 µM; EC50 [8, 17]: 6.52 µM |
| COc1cc(OC(=O)C(C)(C)C)c2c(c1Cl)C=CCC(O)C(O)C(O)C=CCC(C)OC2=O (stereo not shown) [Compound 3] | – | > 10 | > 10 | 11 to 32.5 | > 10 | 22.3 | 30.9 | – |
| COCC(=O)Oc1cc(OC)c(Cl)c2c1C(=O)OC(C)CC=CC1OC(C)(C)OC1C(OC(=O)COC)CC=C2 (stereo not shown) [Compound 35] | 11.6 | – | – | – | – | – | – | – |
| COC(=O)c1ccc(COc2cc(OC)c(Cl)c3c2C(=O)OC(C)CC=CC2OC(C)(C)OC2C(O)CC=C3)cc1 (stereo not shown) [Compound 52] | 9.72 | – | – | – | – | – | – | P. falciparum SI, Selectivity Index (CC50/IC50) [1]: > 10; CC50 [2]: > 100 µM |
| COc1cc(COc2cc(OC)c(Cl)c3c2C(=O)OC(C)CC=CC(O)C(O)C(O)CC=C3)cc(OC)c1 (stereo not shown) [Compound 13] | 12.6 | > 10 | 16.9 | 11 to 32.5 | 24 | 14 | > 10 | antiplasmodial activity against P. falciparum (in words) [1]: active |
| CCC(=O)Oc1cc(OC)c(Cl)c2c1C(=O)OC(C)CC=CC(OC(=O)CC)C(OC(=O)CC)C(OC(=O)CC)CC=C2 (stereo not shown) [Compound 70] | 6.91 | – | – | – | – | – | – | P. falciparum SI, Selectivity Index (CC50/IC50) [1]: > 14; CC50 [2]: > 100 µM |
| COc1cc2c(c(OCc3ccccc3Br)c1)C(=O)OC(C)CC=CC(O)C(O)C(O)CC=C2 (stereo not shown) [Compound 9] | – | 19.2 | < 10 | – | < 10 | < 10 | > 10 | EC50 [4, 17]: 6.67 µM; EC50 [6, 17]: 9 µM; EC50 [7, 17]: 6.99 µM |
| CCC(=O)Oc1cc(OC)cc2c1C(=O)OC(C)CC=CC(OC(=O)CC)C(OC(=O)CC)C(OC(=O)CC)CC=C2 (stereo not shown) [Compound 69] | 9.18 | – | – | – | – | – | – | – |
| COc1cc2c(c(OCc3ccc(Br)cc3F)c1)C(=O)OC(C)CC=CC(O)C(O)C(O)CC=C2 (stereo not shown) [Compound 24] | – | 10.2 | 22.4 | 11 to 32.5 | > 10 | 11.2 | > 10 | – |
| COCC(=O)Oc1cc(OC)cc2c1C(=O)O[C@@H](C)C/C=C/[C@H](O)[C@@H](O)[C@@H](O)C/C=C/2 [Compound 34] | – | 8.76 | 8.55 | – | > 10 | 16.2 | 12.1 | EC50 [3, 16]: 8.55 µM; EC50 [4, 17]: 8.76 µM; antiplasmodial activity against P. falciparum (in words) [1]: moderate activity |
| [2H]C([2H])([2H])C1(C([2H])([2H])[2H])OC2C=CCC(C)OC(=O)c3c(cc(OC)cc3OCc3cccc(C)c3)C=CCC(O)C2O1 (stereo not shown) [Compound 62] | – | 14.2 | > 10 | 11 to 32.5 | 25.8 | > 10 | 16.3 | – |
| COc1cc2c(c(OCc3ccc4ccccc4c3)c1)C(=O)OC(C)CC=CC(O)C(O)C(O)CC=C2 (stereo not shown) [Compound 14] | – | 18.5 | 20.4 | 11 to 32.5 | 17.2 | > 10 | > 10 | death of zebrafish embryos [9]: all embryos died |
| COc1cc(O)c2c(c1)/C=C/C[C@H](O)[C@H](O)[C@@H](O)/C=C/C[C@H](C)OC2=O [Compound 1, zeaenol] | – | – | – | – | – | – | – | EC50 ([3]; 48 h, read-out: EC50 N. exigua): 23.9 µM; EC50 ([4]; Sellaphora laevissima): 8.79 µM; EC50 ([6]; Chaetoceros socialis): 25.4 µM; EC50 ([7]; Phaeodactylum tricornutum): 12.6 µM; EC50 ([8]; Chlorella vulgaris): > 10 µM |
| COc1cc(OC(=O)C(C)(C)C)c2c(c1Cl)C=CCC(OC(=O)C(C)(C)C)C(O)C(OC(=O)C(C)(C)C)C=CCC(C)OC2=O (stereo not shown) [Compound 71] | 3.54 | – | – | – | – | – | – | P. falciparum SI, Selectivity Index (CC50/IC50) [1]: > 28; CC50 [2]: > 100 µM |
| COc1cc(COc2cc(OC)cc3c2C(=O)OC(C)CC=CC(O)C(O)C(O)CC=C3)cc(OC)c1 (stereo not shown) [Compound 12] | – | > 10 | 20 | 11 to 32.5 | > 10 | 32.5 | > 10 | – |
| [2H]C([2H])([2H])C1(C([2H])([2H])[2H])OC2C=CCC(C)OC(=O)c3c(cc(OC)cc3OCc3cccc(F)c3)C=CCC(O)C2O1 (stereo not shown) [Compound 60] | – | – | – | – | – | – | – | antiplasmodial activity against P. falciparum (in words) [1]: active |
| CCC(=O)Oc1cc(OC)cc2c1C(=O)OC(C)CC=CC1OC(C)(C)OC1C(O)CC=C2 (stereo not shown) [Compound 30] | 12.4 | – | – | – | – | – | – | antiplasmodial activity against P. falciparum (in words) [1]: moderate activity |
| COc1cc2c(c(OCc3ccc(C(F)(F)F)cc3)c1)C(=O)OC(C)CC=CC1OC(C)(C)OC1C(O)CC=C2 (stereo not shown) [Compound 45] | – | 18.3 | 27.4 | 11 to 32.5 | > 10 | > 10 | 13 | – |
| [2H]C([2H])([2H])C1(C([2H])([2H])[2H])OC2C=CCC(C)OC(=O)c3c(cc(OC)cc3OCc3ccc(-c4ccccc4C(=O)OC)cc3)C=CCC(O)C2O1 (stereo not shown) [Compound 67] | 7.25 | – | – | – | – | – | – | P. falciparum SI, Selectivity Index (CC50/IC50) [1]: > 13; CC50 [2]: > 100 µM |
| COc1cc(COc2cc(OC)c(Cl)c3c2C(=O)OC(C)CC=CC2OC(C)(C)OC2C(O)CC=C3)cc(OC)c1 (stereo not shown) [Compound 50] | 7.82 | – | – | – | – | – | – | P. falciparum SI, Selectivity Index (CC50/IC50) [1]: > 12; antiplasmodial activity against P. falciparum (in words) [1]: active; CC50 [2]: > 100 µM |
| CCN(CC)CCCC(C)Nc1ccnc2cc(Cl)ccc12 (stereo not shown) [Chloroquine, reference compound] | – | – | – | – | – | – | – | IC50 ([1]; HB3, Erythrocyte, read-out: P. falciparum IC50): 37.9 µM; IC50 ([1]; HB3, read-out: P. falciparum IC50 (positive control, methods)): 0.0329 µM |
| COc1cc2c(c(OCc3cc(F)cc(F)c3)c1)C(=O)OC(C)CC=CC(O)C(O)C(O)CC=C2 (stereo not shown) [Compound 15] | – | 18.8 | > 10 | 11 to 32.5 | 15 | 33.1 | > 10 | – |
| COc1cc2c(c(OCc3ccccc3)c1)C(=O)OC(C)CC=CC(O)C(O)C(O)CC=C2 (stereo not shown) [Compound 4] | – | 11 | 13.6 | 11 to 32.5 | > 10 | 21 | > 10 | – |

Source: PMC10077203, “Structure modification, antialgal, antiplasmodial, and toxic evaluations of a series of new marine-derived 14-membered resorcylic acid lactone derivatives” (Marine Life Science & Technology, 2021)
